# Data published in publication PMC10254530, “Design and Synthesis of Brefeldin A-Isothiocyanate Derivatives with Selectivity and Their Potential for Cervical Cancer Therapy” (Molecules, 2023).
# What was measured:
# U87 cells = tested on: U87 cells; set-up: method as in PMID 35557894; settings: glioblastoma multiforme U87 cells in vitro; read-out: IC50, cytotoxic activity against U87 cells; cited from earlier work
# [1] = tested on: human T lymphoblastoid cell line Jurkat; set-up: method as in PMID 22200402; settings: 0.5 μM; cited from earlier work
# HeLa cells [2] = test: Hoechst 33258 staining assay; assay type: cell-based, human; settings: HeLa, 0.46, 0.92 and 1.84 µM, 48 h
# Description: HeLa cells in 6-well plates were collected after administration. According to the manual of Apoptotic Cell Hoechst 33258 Detection Kit KGA211, HeLa cells were fixed with paraformaldehyde for 30 min. After centrifugation, HeLa cells were soaked in PBS for 5 min and washed 3 times. An appropriate amount of Hoechst 33258 staining solution (working concentration 0.5 μg/mL) was added so that fully covers the HeLa cells and then the cells were left at room temperature for 10 min. After dyeing, HeLa cells were soaked in PBS for 5 min and washed 3 times. Observation under an Olympus (Tokyo, Japan) IX73 fluorescence microscope after sealing with an anti-fluorescence quenching sealing solution (glycerol:PBS = 1:9).
# HeLa cells [3] = test: CCK-8 antiproliferative assay, HeLa; assay type: cell-based, human; settings: for IC50: Homo sapiens, HeLa, CCK-8, 48 h, mean ± SD of three experiments, read-out: IC50 HeLa
# Description: (§1) All cells were cultured in Dulbecco’s Modified Eagle’s Medium (DMEM) (Burlington, MA, USA) or Roswell Park Memorial Institute (RPMI)-1640 medium containing 10% fetal bovine serum and 1% penicillin/streptomycin in an incubator at 37 °C and 5% CO2. […] Cell suspension with a concentration of 8 × 10^4 cells/mL was prepared after cell counting. 100 μL cell suspension was added to each well of the 96-well plate and then placed in an incubator overnight. Most of the derivatives were configured into 80 mM, 20 mM or 4 mM stock solution in DMSO, and the stock solution concentration of BFA and paclitaxel was 0.4 mM. […] The medium in each well was discarded, and 100 μL of gradient diluted derivative solution was added (the control group was added with serum-free medium).
# HeLa cells [4] = test: Annexin V-FITC/PI apoptosis analysis, flow cytometry; assay type: cell-based, human; settings: 48 h, control 3.21%
# Description: According to the manual of Annexin V-FITC/PI Apoptosis Detection Kit KGA105, HeLa cells in 6-well plates were collected by 0.25% trypsin without EDTA (in PBS) digestion after 48 h administration by the above method. After washing with PBS 3 times, 500 μL Binding Buffer was added to suspend HeLa cells. Then Annexin V-FITC and PI were added successively in dark for 15 min, and HeLa cell apoptosis was detected by BD FACSVerse flow cytometer.
# A375 cells = test: CCK-8 antiproliferative assay, A375; assay type: cell-based; settings: Homo sapiens, A-375; CCK-8, 48 h, mean ± SD of three experiments; read-out: IC50 A375
# Description: as §1
# HeLa cells [5] = test: Mitochondrial membrane potential analysis, JC-1 staining; assay type: cell-based, human; settings: 48 h; for JC-1 quadrant Q1-LL / JC-1 quadrant Q1-UL: control 0.00%; for JC-1 green fluorescent cells (decreased mitochondrial membrane potential), quadrant Q1-LR: control 4.07%; for JC-1 quadrant Q1-UR: control 95.93%
# Description: Mitochondrial membrane potential was detected by the JC-1 staining method. According to the manual of JC-1 Apoptosis Detection Kit KGA601, HeLa cells in 6-well plates were collected by 0.25% trypsin without EDTA (in PBS) digestion after 48 h administration. The Incubation Buffer was prepared according to the instructions, mixing and preheating to 37 °C. 500 μL 1 × Incubation Buffer was mixed with 1 μL JC-1 (working concentration 10 μg/mL) to suspend HeLa cells and then the cells were incubated for 20 min. Cells were collected by centrifugation at room temperature, washed twice with 1 × Incubation Buffer and then detected by BD FACSVerse flow cytometer.
# MDA-MB-231 cells = test: CCK-8 antiproliferative assay, MDA-MB-231; assay type: cell-based; settings: Homo sapiens, MDA-MB-231; CCK-8, 48 h, mean ± SD of three experiments; read-out: IC50 MDA-MB-231
# Description: as §1
# HeLa cells [6] = test: Cell cycle analysis, PI staining flow cytometry; assay type: cell-based, human; settings: 48 h; for cells in G1 phase: control 33.42%
# Description: Cell cycle was detected by PI single staining method. Cell suspension with a concentration of 2 × 10^5 cells/mL was prepared after cell counting. 1 mL cell suspension was added to each well of the 6-well plate and then placed in an incubator overnight. The medium in each well was discarded, and 1 mL of gradient diluted derivative solution 6 (0, 0.46, 0.92 and 1.84 µM) was added (the control group was added with serum-free medium). According to the manual of Cell Cycle Detection Kit KGA511, after 48 h, HeLa cells were collected and fixed with 70% ethanol for 2 h. After centrifugation, 100 μL RNase A (working concentration 20 μg/mL) was added and placed in a 37 °C water bath for 30 min. Then 400 μL PI staining (working concentration 50 μg/mL) was added and mixed, centrifugal tube was placed in the dark at 4 °C for 30 min. Red fluorescence at the excitation wavelength of 488 nm was recorded by flow cytometry.
# A549 cells = test: CCK-8 antiproliferative assay, A549; assay type: cell-based; settings: Homo sapiens, A549; CCK-8, 48 h, mean ± SD of three experiments; read-out: IC50 A549
# Description: as §1
# HepG2 cells = test: CCK-8 antiproliferative assay, HepG2; assay type: cell-based; settings: Homo sapiens, HepG2; CCK-8, 48 h, mean ± SD of three experiments; read-out: IC50 HepG2
# Description: as §1
# L-02 cells = test: CCK-8 cytotoxicity assay, normal liver L-02; assay type: cell-based; settings: Homo sapiens, L02; CCK-8, 48 h, normal liver cells, mean ± SD of three experiments; read-out: IC50 L-02
# Description: as §1
smiles,measurement,setting,value
C[C@@H]1CCC2[C@@H](C)[C@@H](OCCCN=C=S)O[C@@H]3O[C@@]4(C)CCC1[C@@]23OO4 (stereo partly drawn) [compound B],IC50,U87 cells,7.41 µM
O=C1c2ccc3c4c(ccc(c24)C(=O)N1CCCN=C=S)C(=O)N(CCCN=C=S)C3=O [derivative A],effect on apoptosis in Jurkat cells,[1],induced apoptosis by activating caspase-8
"C[C@H]1CCC/C=C/[C@@H]2C[C@H](O)C[C@H]2[C@H](OC(=O)c2ccc(N=C=S)cc2)/C=C/C(=O)O1 [Compound 6, (1R,2E,6S,10E,11aS,13S,14aR)-13-Hydroxy-6-methyl-4-oxo-1,6,7,8,9,11a,12,13,14,14a-decahydro-4H-cyclopenta[f][1]oxacyclotridecin-1-yl 4-isothiocyanatobenzoate]","nuclear morphology, Hoechst33258 staining",HeLa cells [2],nuclear fragmentation
same,IC50,HeLa cells [3],1.84 ± 0.08 µM
same,percentage of cells in the early and late stages of apoptosis,HeLa cells [4]; 0.46 µM,16.04%
same,percentage of cells in the early and late stages of apoptosis,HeLa cells [4]; 0.92 µM,26.41%
same,percentage of cells in the early and late stages of apoptosis,HeLa cells [4]; 1.84 µM,39.03%
same,IC50,A375 cells,3.08 ± 0.43 µM
same,JC-1 quadrant Q1-LL,HeLa cells [5]; 0.46 µM,0.00%
same,JC-1 quadrant Q1-UL,HeLa cells [5]; 0.46 µM,0.00%
same,"JC-1 green fluorescent cells (decreased mitochondrial membrane potential), quadrant Q1-LR",HeLa cells [5]; 0.46 µM,13.88%
same,JC-1 quadrant Q1-UR,HeLa cells [5]; 0.46 µM,86.12%
same,JC-1 quadrant Q1-LL,HeLa cells [5]; 0.92 µM,0.00%
same,JC-1 quadrant Q1-UL,HeLa cells [5]; 0.92 µM,0.00%
same,"JC-1 green fluorescent cells (decreased mitochondrial membrane potential), quadrant Q1-LR",HeLa cells [5]; 0.92 µM,24.80%
same,JC-1 quadrant Q1-UR,HeLa cells [5]; 0.92 µM,75.20%
same,JC-1 quadrant Q1-LL,HeLa cells [5]; 1.84 µM,0.00%
same,JC-1 quadrant Q1-UL,HeLa cells [5]; 1.84 µM,0.00%
same,"JC-1 green fluorescent cells (decreased mitochondrial membrane potential), quadrant Q1-LR",HeLa cells [5]; 1.84 µM,39.69%
same,JC-1 quadrant Q1-UR,HeLa cells [5]; 1.84 µM,60.31%
same,IC50,MDA-MB-231 cells,6.83 ± 0.61 µM
same,cells in G1 phase,HeLa cells [6]; 0.46 µM,43.39%
same,cells in G1 phase,HeLa cells [6]; 0.92 µM,49.55%
same,cells in G2 phase,"HeLa cells [6]; 1.84 µM, control 22.94%",12.50%
same,cells in G1 phase,HeLa cells [6]; 1.84 µM,60.80%
same,cells in S phase,"HeLa cells [6]; 1.84 µM, control 43.64%",26.70%
same,IC50,A549 cells,7.18 ± 0.51 µM
same,IC50,HepG2 cells,20.8 ± 1.22 µM
same,IC50,L-02 cells,> 80 µM
"C[C@H]1CCC/C=C/[C@@H]2C[C@H](OC(=O)CCC(=O)OCCOCCOC(=O)c3ccc(N=C=S)cc3)C[C@H]2[C@H](OC(=O)CCC(=O)OCCOCCOC(=O)c2ccc(N=C=S)cc2)/C=C/C(=O)O1 [Compound 8d, Bis(2-(2-((4-isothiocyanatobenzoyl)oxy)ethoxy)ethyl) O,O’-((1R,2E,6S,10E,11aS,13S,14aR)-6-methyl-4-oxo-1,6,7,8,9,11a,12,13,14,14a-decahydro-4H-cyclopenta[f][1]oxacyclotridecine-1,13-diyl) disuccinate]",IC50,HeLa cells [3],7.67 ± 0.33 µM
same,IC50,A375 cells,22.8 ± 1.58 µM
same,IC50,MDA-MB-231 cells,> 40 µM
same,IC50,A549 cells,> 40 µM
same,IC50,HepG2 cells,> 40 µM
same,IC50,L-02 cells,> 80 µM
"C[C@H]1CCC/C=C/[C@@H]2C[C@H](OC(=O)/C=C\C(=O)OCCOCCOC(=O)c3ccc(N=C=S)cc3)C[C@H]2[C@H](OC(=O)/C=C\C(=O)OCCOCCOC(=O)c2ccc(N=C=S)cc2)/C=C/C(=O)O1 [Compound 8j, Bis(2-(2-((4-isothiocyanatobenzoyl)oxy)ethoxy)ethyl) O,O’-((1R,2E,6S,10E,11aS,13S,14aR)-6-methyl-4-oxo-1,6,7,8,9,11a,12,13,14,14a-decahydro-4H-cyclopenta[f][1]oxacyclotridecine-1,13-diyl) dimaleate]",IC50,HeLa cells [3],30.6 ± 2.12 µM
same,"SIHeLa, selectivity index between L-02 and HeLa",HeLa cells [3]; SI = IC50(L-02)/IC50(HeLa),0.70
same,IC50,A375 cells,> 40 µM
same,IC50,MDA-MB-231 cells,> 40 µM
same,IC50,A549 cells,23.79 ± 0.02 µM
same,IC50,HepG2 cells,> 40 µM
same,IC50,L-02 cells,21.27 ± 0.16 µM
